Several values for one entry are separate records, joined by “and”; a condition that tells them apart may be missing. Equal entries are not always repeated. Entries after “also recorded” stand apart in the source; their conditions may differ. Where two headings read alike, the source gives them in different places.
Tests used:
[1] = PAMPA passive membrane permeability; conditions: for R (percent recovery) / Pe: 20 μM, pH 7.4, 5 hours; for Pe: room temperature, mean ±SD; for permeability compared to isoorientin 1: 5-hour incubation; for Permeability classification: PAMPA
Protocol: Samples were run in quadruplicate.
Oral administration is noninvasive and is preferred for chronical diseases such as Alzheimer's disease and other CNS disorders. […] In the PAMPA model, the amount of target compounds diffused from a donor compartment to an acceptor compartment through a tri-layer phospholipid pre-coated membrane are measured to assess oral-absorption potential of drug candidates. In the present study, 1, 4, 9, 17, 21 and 30 were evaluated with the PAMPA assay.

GSK-3β [2] = molecular target: T1, GSK-3β (Homo sapiens, UniProt P49841); assay: Kinase luminescent assay (ADP-Glo), GSK-3β inhibition; type: biochemical; conditions: for IC50: 25 μM ATP, 1 hour, room temperature, mean of quadruplicate of two experiments, read-out: IC50 against GSK-3β
Protocol: Kinase Luminescent Assay.
Kinase inhibition was assessed with the ADP-Glo Kinase Assay. […] The reaction mixture was incubated for 1 hour at room temperature followed by the addition of the ADP-Glo′ reagents according to the manufacturer's protocol. The kinase inhibitor staurosporine was used at 1 μM as a reference control. Each data point was collected in quadruplicate of two independent experiments.
Target sequence in this assay (P49841 whole entry): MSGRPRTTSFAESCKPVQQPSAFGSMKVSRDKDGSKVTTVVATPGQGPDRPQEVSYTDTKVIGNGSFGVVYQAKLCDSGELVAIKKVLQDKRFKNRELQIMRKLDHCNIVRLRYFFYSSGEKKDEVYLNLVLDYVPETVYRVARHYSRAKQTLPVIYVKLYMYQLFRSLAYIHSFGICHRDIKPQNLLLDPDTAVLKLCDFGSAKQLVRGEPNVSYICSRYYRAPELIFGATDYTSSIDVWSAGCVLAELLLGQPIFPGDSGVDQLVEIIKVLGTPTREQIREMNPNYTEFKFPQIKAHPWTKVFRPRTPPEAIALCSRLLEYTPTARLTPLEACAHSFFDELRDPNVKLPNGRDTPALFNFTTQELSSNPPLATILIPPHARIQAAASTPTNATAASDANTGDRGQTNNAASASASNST

[3] = tested on: GSK-3β-mediated tau phosphorylation (pS396) in SH-SY5Y lysate; assay: Whole-cell lysate GSK-3β assay with human Tau pS396 ELISA; type: biochemical; conditions: for GSK-3β-mediated tau hyperphosphorylation at pS396: 2, 10 and 50 μM, 2 hours, 37° C., lysate with 0.25% GSK-3β
Protocol: Whole-Cell Lysate GSK-3β Assay.
The assay procedure was followed as described (Liang, et al. (2016) ACS Chem. Neurosci. 7:912-923). SH-SY5Y cells were washed with phosphate-buffered saline (PBS) and lysed with cell extraction buffer containing 10 mM Tris, pH 7.4, 100 mM NaCl, 1 mM EDTA, 1 mM EGTA, 1 mM NaF, 20 mM Na4P2O7, 2 mM Na3VO4, 1% Triton X-100, 10% glycerol, 0.1% sodium dodecyl sulfate (SDS), 0.5% sodium deoxycholate, 1 mM phenylmethanesulfonyl fluoride (PMSF) and a protease inhibitor cocktail. Lysate was diluted with kinase buffer (40 mM Tris, pH 7.5, 20 mM MgCl2, 50 μM DTT, 400 μM ATP) to afford a concentration of 5 μg/μL of total protein, and split into aliquots. Recombinant human GSK-3β was fortified into lysate aliquots to a final concentration of 0.25% (wt/wt) of total protein. A lysate aliquot fortified with heat-inactivated GSK-3β was used as a negative control. The fortified lysate aliquots were incubated with test sample or 5% DMSO vehicle at 37° C. for 2 hours followed by ELISA analysis.
The quantitative determination of phosphorylated human tau at GSK-3β specific pS396 site was conducted by taking 50 μL diluted cell lysate and using a specific antibody against human tau [pS396] in a sandwich ELISA according to the manufacturer's protocol. Tau phosphorylation was quantified by measuring the absorbance at 450 nm in a microtiter plate reader. The analysis was collected in quadruplicate of two independent experiments.

SH-SY5Y cells = assay: Cytotoxicity in SH-SY5Y cells; type: cell-based, human; conditions: 1000 μM
Protocol: (§1) Human neuroblastoma SH-SY5Y cell line (Sigma-Aldrich, Saint Louis, Mo.) was cultured in DMEM/F12 (v/v 1:1) media supplemented with 2 mM glutamine, 10% heat-inactivated fetal bovine serum (FBS) and 1% antibiotics including penicillin and streptomycin. After reaching 70-80% confluence, cells were then subcultured on poly-L-lysine plates with 10 μM retinoic acid in a reduced serum media (1% FBS) to promote neuronal maturation and differentiation as described (Agholme, et al. (2010) J. Alzheimer's Dis. 20: 1069-1082). Cell cultures were incubated at 37° C. in a fully humidified atmosphere containing 5% CO2.
(§2) SH-SY5Y cells were seeded at a density of 3×10^5 cells/mL in a 96-well plate in DMEM/F12 media containing 10 μM retinoic acid and 1% FBS to suppress cell proliferation. Cells were incubated under regular culture conditions for attachment. After 24 hours of plating, the cells were pretreated with different concentrations of test samples or the 0.2% DMSO as a vehicle control for 1 hour and then co-incubated with 10 μM Aβ42 for 72 hours. After the experimental treatment, the cells were subject to a […]® 96 AQueous One Solution Cell Proliferation […] Assay according to the manufacturer's instruction. […] Each data point was collected in triplicate of two independent experiments.

GSK-3α = GSK-3α (Homo sapiens, UniProt P49840); assay: Kinase selectivity profile, GSK-3α; type: biochemical
Protocol: (§3) Kinase inhibition was assessed with the ADP-Glo Kinase Assay. For screening, 5 ng/μL of kinase was assayed in a reaction containing 50 ng/μL substrate, 40 mM Tris, pH 7.5, 20 mM MgCl2, 0.1 mg/mL bovine serum albumin, 50 μM dithiothreitol (DTT), 25 μM ATP, varying concentrations of test samples or 5% DMSO as vehicle. The reaction mixture was incubated for 1 hour at room temperature followed by the addition of the ADP-Glo′ reagents according to the manufacturer's protocol. The kinase inhibitor staurosporine was used at 1 μM as a reference control. Each data point was collected in quadruplicate of two independent experiments.
(§4) To assess kinase selectivity, compound 30 was screened against a panel of 41 human protein kinases of relevance to Alzheimer's disease and other CNS disorders (Martin, et al. (2013) Aging Res. Rev. 12:289-309). […] The exceptional selectivity of compound 30 to GSK-3β can effectively minimize risk of off-target effects.

[4] = tested on: panel of 41 human protein kinases; assay: Kinase selectivity profile, other kinases of the panel; type: biochemical; conditions: 5 μM
Protocol: as §3, §4

GSK-3β [5] = molecular target: T1, GSK-3β; assay: Kinase selectivity profile, GSK-3β; type: biochemical
Protocol: as §3, §4
Target sequence in this assay (P49841 whole entry): as above

[6] = tested on: SH-SY5Y cells treated with Aβ42 oligomers; assay: Anti-Aβ42 neurotoxicity assay; type: cell-based, human
Protocol: as §1
The toxic oligomers of Aβ42 were prepared as described (Liang, et al. (2016) ACS Chem. Neurosci. 7:912-923). Briefly, lyophilized Aβ42 peptide was dissolved in hexafluoroisopropanol, dried under vacuum, and stored at −20° C. Immediately prior to use, the peptide residue was reconstituted in DMEM/F12 media to make a stock solution at 0.1 mM and incubated at 4° C. for 24 hours to form diffusible oligomers. Aβ42 oligomers at a final concentration of 10 μM were assayed for cell viability.
as §2

GSK-3β [7] = molecular target: T1, GSK-3β; assay: GSK-3β kinetics (Lineweaver-Burk), ATP or substrate GS2 competition; type: biochemical; conditions: 30 at 0 to 5 μM
Protocol: To study GSK-3β kinetics, a reaction solution contained 5 ng/μL kinase, 40 mM Tris, pH 7.5, 20 mM MgCl2, 0.1 mg/mL BSA, 50 μM DTT, and varying concentrations of ATP or substrate GS2 (residues 636-662 of human muscle glycogen synthase) versus test samples. The mixture was incubated for 5, 15, 30, and 60 minutes at room temperature followed by the addition of the ADP-Glo′ reagents according to the manufacturer's protocol. The Lineweaver-Burk representation is derived from the double reciprocal plotting of the enzyme kinetic data.
Under a constant concentration of the substrate GS2 (17 μM), ATP concentrations varied from 2 to 50 μM and 30 concentrations varied from 0 to 5 μM. […] In the second set of experiments under a constant concentration of ATP (10 μM), substrate GS2 concentrations varied from 8 to 66 μM and 30 concentrations varied from 0 to 5 μM. […] The enzyme inhibitory behaviors of 30 are similar to that of the parent compound 1 (Liang, et al. (2016) ACS Chem. Neurosci. 7:912-923) and therefore confirm that the new analogues are indeed substrate-competitive inhibitors of GSK-3β.
Target sequence in this assay (P49841 whole entry): as above

GSK-3β [8] = molecular target: T1, GSK-3β; conditions: background; cited from earlier work
Target sequence in this assay (P49841 whole entry, species assumed): as the sequence (P49841 whole entry) above

Chain of GSK-3α (P49840 whole entry): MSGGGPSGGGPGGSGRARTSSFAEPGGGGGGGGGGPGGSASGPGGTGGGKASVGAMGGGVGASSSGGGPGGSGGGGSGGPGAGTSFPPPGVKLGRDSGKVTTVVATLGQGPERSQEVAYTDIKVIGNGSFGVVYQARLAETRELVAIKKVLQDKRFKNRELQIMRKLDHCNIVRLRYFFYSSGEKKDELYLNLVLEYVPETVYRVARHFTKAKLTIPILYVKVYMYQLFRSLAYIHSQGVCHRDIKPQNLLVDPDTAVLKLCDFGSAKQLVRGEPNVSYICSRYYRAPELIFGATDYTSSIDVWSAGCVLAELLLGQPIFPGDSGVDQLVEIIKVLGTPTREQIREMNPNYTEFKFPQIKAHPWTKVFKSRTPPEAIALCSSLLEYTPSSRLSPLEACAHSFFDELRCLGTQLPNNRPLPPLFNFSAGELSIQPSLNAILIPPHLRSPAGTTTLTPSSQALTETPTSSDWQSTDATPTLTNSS

With COc1ccc(-c2cc(=O)c3c(OC)c([C@@H]4O[C@H](C(=O)NC(C)C)[C@@H](O)[C@H](O)[C@H]4O)c(OC)cc3o2)cc1OC [Compound 9, (2S,3S,4R,5R,6S)-6-(2-(3,4-Dimethoxyphenyl)-5,7-dimethoxy-4-oxo-4H-chromen-6-yl)-3,4,5-trihydroxy-N-isopropyltetrahydro-2H-pyran-2-carboxamide] the “R (percent recovery)” value [1] was 46%, the Pe [1] was 1.55 ± 0.06 ×10^−6 cm/s and the “permeability compared to isoorientin 1” value [1] was “significant increase in permeability”. The Permeability classification [1] was “high (high (Pe > 1.5 × 10^−6 cm/s))”, the IC50 (GSK-3β [2]) was 5.4 ± 0.1 µM and the “GSK-3β-mediated tau hyperphosphorylation at pS396” value [3] was “effectively attenuated tau hyperphosphorylation in a dose-dependent manner; also recorded: attenuate GSK-3β-mediated tau phosphorylation”.

In the case of COc1ccc(-c2cc(=O)c3c(OC)c([C@@H]4O[C@H](C(=O)NC5CCCCC5)[C@@H](O)[C@H](O)[C@H]4O)c(OC)cc3o2)cc1OC [Compound 17, (2S,3S,4R,5R,6S)—N-Cyclohexyl-6-(2-(3,4-dimethoxyphenyl)-5,7-dimethoxy-4-oxo-4H-chromen-6-yl)-3,4,5-trihydroxytetrahydro-2H-pyran-2-carboxamide], the “R (percent recovery)” value [1] is reported as 20%, the Pe [1] is reported as 1.77 ± 0.07 ×10^−6 cm/s and the “permeability compared to isoorientin 1” value [1] is reported as “significant increase in permeability”. For the same molecule, the Permeability classification [1] was “high (high (Pe > 1.5 × 10^−6 cm/s))”, the IC50 (GSK-3β [2]) was 9 ± 1.3 µM and the “GSK-3β-mediated tau hyperphosphorylation at pS396” value [3] was “effectively attenuated tau hyperphosphorylation in a dose-dependent manner; also recorded: attenuate GSK-3β-mediated tau phosphorylation”.

For COc1ccc(-c2cc(=O)c3c(OC)c([C@@H]4O[C@H](C(=O)NCc5ccccc5)[C@@H](O)[C@H](O)[C@H]4O)c(OC)cc3o2)cc1OC [Compound 21, (2S,3S,4R,5R,6S)-6-(2-(3,4-Dimethoxyphenyl)-5,7-dimethoxy-4-oxo-4H-chromen-6-yl)-3,4,5-trihydroxy-N-benzyltetrahydro-2H-pyran-2-carboxamide], the “R (percent recovery)” value [1] was 30%, the Pe [1] was 1.35 ± 0.08 ×10^−6 cm/s and the “permeability compared to isoorientin 1” value [1] was “significant increase in permeability”. For the same molecule, the Permeability classification [1] was “medium (medium (1.0 × 10^−6 cm/s ≤ Pe ≤ 1.5 × 10^−6 cm/s))”, the IC50 (GSK-3β [2]) was 15.8 ± 1.2 µM and the “GSK-3β-mediated tau hyperphosphorylation at pS396” value [3] was “effectively attenuated tau hyperphosphorylation in a dose-dependent manner; also recorded: attenuate GSK-3β-mediated tau phosphorylation”.

With COc1ccc(-c2cc(=O)c3c(OC)c([C@@H]4O[C@H](C(=O)N[C@@H](C)C(F)(F)F)[C@@H](O)[C@H](O)[C@H]4O)c(OC)cc3o2)cc1OC [Compound 30, (2S,3S,4R,5R,6S)-6-(2-(3,4-Dimethoxyphenyl)-5,7-dimethoxy-4-oxo-4H-chromen-6-yl)-3,4,5-trihydroxy-N—((S)-1,1,1-trifluoropropan-2-yl)tetrahydro-2H-pyran-2-carboxamide] the cytotoxicity (SH-SY5Y cells) was “no observable cytotoxicity”, the inhibition at 5 µM (GSK-3α) was 7.5% and the “R (percent recovery)” value [1] was 30%. The Pe [1] was 2.23 ± 0.21 ×10^−6 cm/s, the Permeability classification [1] was “high (high (Pe > 1.5 × 10^−6 cm/s))” and the “inhibition of 40 out of 41 kinases of the test panel” value [4] was “only marginal or weak inhibition”. The “LiPE (pIC50−CLogP)” value (GSK-3β [2]) was over 4, the IC50 (GSK-3β [2]) was < 20 µM and 0.59 µM and the “potency against GSK-3β relative to epimer 31” value (GSK-3β [2]; vs 31) was “about 4 fold”. The “increase of potency against GSK-3β relative to 1” value (GSK-3β [2]; vs isoorientin 1) was 310 fold, the “specificity for GSK-3β versus GSK-3α” value (GSK-3β [5]; 5 μM) was 12.3 fold and the inhibition at 5 µM (GSK-3β [5]; read-out: GSK-3β inhibition (decrease of kinase activity)) was 92.3%. The “protection against Aβ42 neurotoxicity” value ([6]; 1.25 to 20 μM, 10 μM Aβ42, 72 hours) was “neuroprotection in a dose-dependent manner; also recorded: alleviates Aβ42 induced neurotoxicity”, the “improvement in effectiveness compared to parent compound” value ([6]; 30 at 10 μM versus 1 at 200 μM) was about 20 fold and the EC50 ([6]; Homo sapiens, SH-SY5Y, 1 hour pretreatment, 10 μM Aβ42, 72 hours, read-out: neuroprotective potency EC50) was 8.7 µM. The “effective dose, morphological protection from Aβ42 intoxication” value ([6]; morphological observations) was 10 μM, the “increase of neuroprotective potency relative to 1” value ([6]; vs parent compound 1) was 5.4 fold and the “inhibition of tau hyperphosphorylation compared to TDZD-8” value ([3]; 10 μM, TDZD-8 at the same concentration) was “better inhibition against tau hyperphosphorylation”. The “GSK-3β-mediated tau hyperphosphorylation at pS396” value [3] was “effectively attenuated tau hyperphosphorylation in a dose-dependent manner; also recorded: attenuate GSK-3β-mediated tau phosphorylation”, the “competition with substrate GS2” value (GSK-3β [7]; ATP 10 μM, GS2 8 to 66 μM) was “competed with the substrate GS2” and the “competition with ATP” value (GSK-3β [7]; GS2 17 μM, ATP 2 to 50 μM) was “no competition between ATP and 30”.

In the case of O=C([O-])[O-].[Li+].[Li+] [lithium carbonate], the IC50 (GSK-3β [8]) is given as 2000 µM.
